Holding throughout (test): NCI tumour cell line growth inhibition, 48 h
For test [1], the system named is NCI-H226.
The subject of test [2] is COLO 205.
Test [3] deals with CCRF-CEM.
The test system of test [4] is CAKI-1.
The subject of test [5] is DU-145.
Test [6] concerns KM12.
In test [7] the test system is MDA-N.
Test [8] deals with NCI/ADR-RES.
In test [9] the test system is SK-OV-3.
Test [10] has as its system HCC 2998.
Test [11] has as its system LOX IMVI.
The test system of test [12] is MDA-MB-435.
For test [13], the system named is NCI-H522.
In test [14] the test system is HT-29.
Test [15] relates to HOP-62.
The subject of test [16] is ACHN.
Test [17] deals with SW-620.
The subject of test [18] is OVCAR-8.
In test [19] the test system is HCT-116.
The subject of test [20] is BT-549.

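Following 48 hours of exposure in 96-well plates, responses at five concentrations were used to interpolate endpoints linearly. GI50: concentration for 50% inhibition of growth.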 Activity calls are given as the source filed them. Rule as the data show it: active = GI50 up to about 1.1 µM and inactive = higher.

As to `CSc1nc(C)c2c(n1)N(c1ccc(Cl)cc1)CC2`, the GI50 in [1], in [2], in [3], in test [4], in test [5] and in [6] was > 100 µM (inactive) in each case. In addition, the GI50 in test [7], in test [8], in test [9], in [10], in [11] and in [12] was > 100 µM (inactive) throughout. Further, the GI50 in [13], in test [14], in test [15], in test [16], in [17] and in [18] was > 100 µM (inactive) each time. In addition, the GI50 in [19] was > 100 µM (inactive).

As to `C=CCN(C(=O)CNC(=O)C(F)(F)F)c1cc(OCc2ccccc2)c2c(c1)c(C)cn2S(=O)(=O)c1ccccc1`, the GI50 was > 34.8 µM (inactive) in test [1]; 8.02 µM (inactive) in test [2]; 0.139 µM (active) in test [3]; > 31 µM (inactive) in [4]; > 100 µM (inactive) in test [5]; 17.6 µM (inactive) in test [6]. The GI50 in test [8] was > 100 µM (inactive); in [9] it was > 100 µM (inactive); in [10] it was > 100 µM (inactive); in test [11], 16 µM (inactive); in test [12], 40.6 µM (inactive); in test [13], 6.19 µM (inactive). Moreover, the GI50 was > 100 µM (inactive) in [14]; > 100 µM (inactive) in test [15]; > 100 µM (inactive) in [20]; > 26 µM (inactive) in [16]; > 26.8 µM (inactive) in [18]; 7.66 µM (inactive) in test [19].

For `CN1C(=O)C2(C=CC(O)CC2)c2ccccc21` (stereo not drawn), the GI50 in test [1], in [2], in test [3], in test [4], in test [5] and in test [6] was > 100 µM (inactive) in each case. Besides, the GI50 in [7], in test [8], in test [9], in test [10], in [11] and in test [12] was > 100 µM (inactive) throughout. The GI50 in [13], in [14], in [15], in test [16], in test [17] and in [18] was > 100 µM (inactive) each time. Besides, the GI50 in [19] is > 100 µM (inactive).

Take `CCCCCCCCCCCCCCCCCCOCC(CO[PH](=O)O)OCCCCCCCCCCCCCCCCCC` (stereo not drawn): the GI50 in test [1], in test [2], in test [4], in [5], in [6] and in test [7] was > 50 µM (inactive) each time. Moreover, the GI50 in [8], in [9], in test [10], in [11], in test [12] and in [13] was > 50 µM (inactive) throughout. For the same compound, the GI50 in [14], in [17], in test [18] and in test [19] was > 50 µM (inactive) throughout.

In the case of `NC(CSC(c1ccccc1)(c1ccccc1)c1ccccc1)C(=O)O` (stereo not drawn), the GI50 in test [1] was 3.59 µM (inactive); in test [2], 0.665 µM (active); in test [3], 0.583 µM (active); in test [4], 4.41 µM (inactive); in [6], 0.962 µM (active); in [7] it was 1.08 µM (active). Also, the GI50 in test [8] was 6.67 µM (inactive); in test [9] it was 0.634 µM (active); in test [10] it was 0.716 µM (active); in test [11] it was 0.802 µM (active); in [12] it was 0.333 µM (active); in test [13] it was 0.59 µM (active). The GI50 in test [14] is 2.94 µM (inactive); in test [15] it was 1.43 µM (inactive); in [20], 0.975 µM (active); in [16], 7.89 µM (inactive); in test [17], 0.741 µM (active); in test [18], 0.904 µM (active). For the same compound, the GI50 in [19] is 0.615 µM (active).

Consider `CC12CP(=O)(O)CC1C2(Cl)Cl` (stereo not drawn), for which the GI50 in [1], in [2], in test [3], in test [4], in test [5] and in [6] was > 100 µM (inactive) in each case. In addition, the GI50 in [8], in [9], in test [10], in [11], in [12] and in test [13] was > 100 µM (inactive) throughout. The GI50 in test [14], in [15], in test [20], in test [16], in [17] and in [18] was > 100 µM (inactive) in each case. In addition, the GI50 in [19] was > 100 µM (inactive).

Turning to `CCCCCCCCCCCCCC1=C(O)C(=O)C(CC2=C(O)C(=O)C(CCCCCCCCCCCCC)=C(O)C2=O)=C(O)C1=O`, the GI50 is > 100 µM (inactive) in test [1]; > 100 µM (inactive) in test [2]; 98.2 µM (inactive) in [3]; > 100 µM (inactive) in test [4]; > 100 µM (inactive) in [5]; > 100 µM (inactive) in test [6]. Moreover, the GI50 is > 100 µM (inactive) in test [7]; 44.7 µM (inactive) in test [9]; > 100 µM (inactive) in test [11]; > 10 µM (inactive) in test [12]; > 100 µM (inactive) in test [13]; > 100 µM (inactive) in test [14]. In addition, the GI50 is > 100 µM (inactive) in test [20]; 30.8 µM (inactive) in [16]; > 100 µM (inactive) in test [17]; > 100 µM (inactive) in test [18]; > 100 µM (inactive) in test [19].

As for `C(#C[C@@]12CCC[C@@H]1NCO2)c1ccc2c(c1)OCO2`, the GI50 in test [1] was > 100 µM (inactive); in test [2] it was 16.9 µM (inactive); in [3], 42.6 µM (inactive); in test [4], 67.1 µM (inactive); in test [5] it was > 100 µM (inactive); in test [6], 69.7 µM (inactive). In addition, the GI50 in test [7] was 61.5 µM (inactive); in [8], 37.5 µM (inactive); in test [9], > 100 µM (inactive); in [10], 17.6 µM (inactive); in test [11], 46.6 µM (inactive); in [12], 61.1 µM (inactive). Moreover, the GI50 is 37.3 µM (inactive) in test [13]; 32.2 µM (inactive) in [14]; 87.3 µM (inactive) in [15]; 65 µM (inactive) in test [16]; 81.3 µM (inactive) in test [17]; 60.8 µM (inactive) in test [18].

As for `COC(=O)c1cccc(C)c1C1CN=NC12Cc1cc(C)cc(C)c1C2=O` (stereo not drawn), the GI50 in test [1] was 61.5 µM (inactive); in test [3], 28.4 µM (inactive); in [4], 78.2 µM (inactive); in test [5], 41.3 µM (inactive); in test [6], 34.4 µM (inactive); in test [7], 26.7 µM (inactive). Besides, the GI50 is 23.1 µM (inactive) in test [8]; 26.5 µM (inactive) in [10]; > 100 µM (inactive) in [11]; 30.1 µM (inactive) in [12]; 31.3 µM (inactive) in test [13]; 24.7 µM (inactive) in test [14]. The GI50 in test [15] is 53 µM (inactive); in test [16], 28.8 µM (inactive); in test [17], 29.7 µM (inactive); in test [18] it was 44.8 µM (inactive); in [19], 22.8 µM (inactive).

Consider `Cc1ccc(C(=N)c2ccccc2Cc2cccc3ccccc23)c2ccccc12`, for which the GI50 is > 100 µM (inactive) in test [1]; 22.1 µM (inactive) in [2]; 82.6 µM (inactive) in test [3]; > 100 µM (inactive) in test [4]; > 100 µM (inactive) in test [5]; > 100 µM (inactive) in [6]. Further, the GI50 was > 100 µM (inactive) in [8]; > 100 µM (inactive) in [9]; 80.2 µM (inactive) in test [11]; > 100 µM (inactive) in [12]; 56.5 µM (inactive) in test [13]; 11.7 µM (inactive) in [14]. For the same compound, the GI50 was > 100 µM (inactive) in test [15]; > 100 µM (inactive) in test [20]; > 100 µM (inactive) in test [16]; 71 µM (inactive) in test [17]; > 100 µM (inactive) in test [18]; 22.1 µM (inactive) in test [19].

Turning to `NC1CC(=O)c2sccc21` (stereo not drawn), the GI50 in test [1], in [2], in test [3], in test [4], in test [5] and in test [6] was > 100 µM (inactive) throughout. Besides, the GI50 in [8], in [9], in [10], in test [12], in test [13] and in test [14] was > 100 µM (inactive) throughout. Also, the GI50 in test [15], in [20], in [16], in test [17], in test [18] and in test [19] was > 100 µM (inactive) each time.

Source of the values: ChEMBL document CHEMBL1201862, “PubChem BioAssay data set” (2004).
